Data from US6800630B2, “Pyrimidine derivatives having antitumor effect” (Shionogi & Co., Ltd., priority 2000, dated 2004).
Values after ≈ are worked out from the molar mass of the structure shown.

Assays:
Assay type in all cases: cell-based
[1] = tested on: signal derived from Ras oncogene products (DT-R cells, pRRE3-luc transfected v-ki-ras-transformed NIH373 cells); assay: Inhibitory effect against cellular signaling derived from Ras oncogene products: RRE-luciferase reporter, Minimal Active Concentration (MAC) at which DT-C and DT-R activities dissociate; settings: minimal concentration at which luciferase activities of DT-C and DT-R cells dissociated
Description: (§1) Test Example 1 Inhibitory effect against cellular signaling derived from Ras oncogene products
(§2) Based on the reporter plasmid (pGV-P (Toyo Ink, Japan)), in which luciferase gene was ligated to SV40-derived minimal promoter, we constructed a plasmid designated pRRE3-luc by inserting 3 copies of chemically synthesized oligonucleotides (Sequence: CAGGATATGACTCT, derived from mouse NVL-3 (M. A. Reddy et al.(1992)Mol. Endocrinol., 6, 1051)) into upstream of the promoter. v-ki-ras-transformed NIH373 cells (DT cells, provided by Dr. Makoto Noda (Kyoto Univ., School of medicine)) were transfected with this plasmid by liposome-mediated transfection and transfected cell lines stably incorporated and maintained each plasmid were obtained. We named pGV-P and pRRE3-transfected cell line as DT-C and DT-R, respectively and used in the assay described below.
(§3) i) All the cell lines were cultured in Dulbecco's Modified Essential Medium (DMEM: 10% Fetal Calf Serum(FCS: Hyclone, USA)) including […] kanamycin (Meiji Seika, Japan) in humidified incubator under condition of 5% CO2 at 37° C.
(§4) ii) DT-C and DT-R cells were seeded at 2500 cells/well into flat-bottom 96 well multiplate (Sumitomo bakelite) and incubated for 24 hours.
(§5) iii) Test compounds were prepared as 1 mg/ml DMSO solution.
(§6) iv) The solution of test compounds were added to the culture. Tested compounds are used at the concentration from […] to 0.51 ng/ml with 3-fold dilution.
(§7) v) After 24 hours, the culture supernatant was completely aspirated and 20 μl of cell-lysing solution (PGC-50 (Toyo Ink, Japan)) was added before cells were dried up. In order to lyse the cells completely, multiwell plates were left at room temperature for 10 to 30 min. The plates were wrapped up and stored at −20° C. till the day of measurement.
(§8) i) Melt the samples by putting 96 well multiplate at 37° C. and add 90 μl/well 25 mM Tris (pH 7.5).
(§9) ii) Transfer 50 μl of the sample (110 μl) to the 96 well microplate (Microlite 1 (Dynatech)) for measurement.
(§10) iii) Measure the samples by the luminometer, LUMINOUS CT9000D (Dia-Yatron, Japan). We used Pickagene luminescence kit PGL2000 or LT2.0 (Toyo Ink, Japan) as enzyme substrates for luminescence measurement (50 μl/well).
(§11) i) The luciferase activity of DT-C cells and DT-R cells were plotted in the graph where the relative activity and the compound concentration were expressed as Y-axis and X-axis, respectively. We judged by the degree of dissociation between the activities of DT-C cells and DT-R cells as an index.
ii) Concretely, efficacy of the compound was expressed by two values described below.
a) Among the points of concentration tested, the minimal concentration (Minimal Active Concentration: MAC), at which the activities of DT-C cells and DT-R cells dissociated, was shown as an index of efficacy of the compound.

[2] = tested on: DT-C cells (pGV-P transfected v-ki-ras-transformed NIH373 cells); assay: Luciferase activity of DT-C control cells (IC50-C), index of non-specific transcription-inhibitory effect or cytotoxicity; settings: tested concentration nearest to 50% inhibition in DT-C cells
Description: as §1, §2, §3, §4, §5, §6, §7, §8, §9, §10, §11
b) Among the points of concentration tested, the concentration which is the nearest to 50% inhibition concentration at DT-C cells (IC50-C), was shown as an index of non-specific transcription-inhibitory effect or of cytotoxicity. In case of positive compounds, 50% inhibition concentration in DT-C cells which was higher than the active concentration was expressed as IC50-C.

[3] = tested on: H460; assay: In vitro cell growth inhibition test, MTT assay; settings: MTT assay 4 days after compound addition
Description: [The source words this procedure for another cell line and reports this cell line under the same test.] (§12) Test Example 2 In vitro cell growth inhibition test Cells and MTT assay
(§13) Human squamous lung cancer […], human squamous lung cancer Ma44, human lung adenocarcinoma A549, human colon cancer HT29 and human pancreas cancer PANC-1 were used.

[4] = tested on: human colon cancer HT29; assay: In vitro cell growth inhibition test, MTT assay; settings: MTT assay 4 days after compound addition
Description: as §12, §13

[5] = tested on: human lung adenocarcinoma A549; assay: In vitro cell growth inhibition test, MTT assay; settings: MTT assay 4 days after compound addition
Description: as §12, §13

[6] = tested on: human pancreas cancer PANC-1; assay: In vitro cell growth inhibition test, MTT assay; settings: MTT assay 4 days after compound addition
Description: as §12, §13

[7] = tested on: human squamous lung cancer Ma44; assay: In vitro cell growth inhibition test, MTT assay; settings: MTT assay 4 days after compound addition
Description: as §12, §13

[8] = tested on: human squamous lung cancer RERF-RC-AI; assay: In vitro cell growth inhibition test, MTT assay; settings: MTT assay 4 days after compound addition
Description: as §12, §13

| SMILES | IC50 H460 [3] [ng/mL] | IC50 HT-29 [4] [ng/mL] | IC50 A549 [5] [ng/mL] | IC50 PANC-1 [6] [ng/mL] | IC50 Ma44 [7] [ng/mL] | IC50 RERF-LC-AI [8] [ng/mL] | MAC (Minimal Active Concentration) [1] [µg/mL] | IC50 (IC50-C) [2] [µg/mL] |
| --- | --- | --- | --- | --- | --- | --- | --- | --- |
| CCCNC(=Nc1nc(C)ncc1CSc1nnc(-c2ccc(N)cc2)o1)SC [Compound A-12] | 11.5 (≈ 0.0268 µM) | 6.3 (≈ 0.0147 µM) | 8 (≈ 0.0186 µM) | 9.1 (≈ 0.0212 µM) | 9.5 (≈ 0.0221 µM) | 5.7 (≈ 0.0133 µM) | 0.0137 | >10 |
| CCCSC(=Nc1nc(C)ncc1CSc1nnc(-c2ccc([N+](=O)[O-])cc2)o1)NC [Compound A-7] | 3.8 (≈ 0.00827 µM) | 3.6 (≈ 0.00783 µM) | 2.1 (≈ 0.00457 µM) | 0.6 (≈ 0.00131 µM) | 1.6 (≈ 0.00348 µM) | 1.3 (≈ 0.00283 µM) | 0.123 | 3.33 (≈ 7.25 µM) |
| CCCSC(=Nc1nc(C)ncc1CSc1nnc(-c2ccc([N+](=O)[O-])cc2)o1)NCC [Compound A-8] | 6.8 (≈ 0.0144 µM) | 41.4 (≈ 0.0874 µM) | 9.3 (≈ 0.0196 µM) | 37.1 (≈ 0.0783 µM) | 34.1 (≈ 0.072 µM) | 27.8 (≈ 0.0587 µM) | 0.123 | >10 |

Continued, in another order:

| IC50 H460 [3] [ng/mL] | IC50 HT-29 [4] [ng/mL] | IC50 A549 [5] [ng/mL] | IC50 PANC-1 [6] [ng/mL] | IC50 Ma44 [7] [ng/mL] | IC50 RERF-LC-AI [8] [ng/mL] | SMILES | MAC (Minimal Active Concentration) [1] [µg/mL] | IC50 (IC50-C) [2] [µg/mL] |
| --- | --- | --- | --- | --- | --- | --- | --- | --- |
| 15 (≈ 0.035 µM) | 15 (≈ 0.035 µM) | 17.4 (≈ 0.0406 µM) | 10.7 (≈ 0.025 µM) | 24.1 (≈ 0.0562 µM) | 13.2 (≈ 0.0308 µM) | CCCNC(=Nc1nc(C)ncc1CSc1nnc(-c2ccc(C)cc2)o1)SC [Compound A-17] | 0.0412 | >10 |
| 15.3 (≈ 0.0356 µM) | 10.3 (≈ 0.024 µM) | 11.1 (≈ 0.0258 µM) | 12.4 (≈ 0.0289 µM) | 12.7 (≈ 0.0296 µM) | 6.5 (≈ 0.0151 µM) | CCCSC(=Nc1nc(C)ncc1CSc1nnc(-c2ccc(N)cc2)o1)NC [Compound A-15] | 0.00152 | >10 |
| 27.5 (≈ 0.0583 µM) | 0.4 (≈ 0.000848 µM) | 51.4 (≈ 0.109 µM) | 0.4 (≈ 0.000848 µM) | 0.4 (≈ 0.000848 µM) | 0.4 (≈ 0.000848 µM) | CCCNC(=Nc1nc(C)ncc1CSc1nnc(-c2ccc([N+](=O)[O-])cc2)o1)NN(C)C [Compound A-18] | 0.00457 | >10 |
